Results as given in patent publication US9402821B2, “Methods and pharmaceutical compositions for treatment of cystic fibrosis” (INSERM (Institut National de la sante et de la Recherche …, priority 2012, dated 2016).
“Also recorded” adds a separate entry of the source.

Experiments:
Type in all cases: cell-based
IL-8 secretion = assay: IL-8 release into supernatant of cell cultures; conditions: TNFα; Beas2B, Calu-3 and heterologous HeLa systems (FIG. 2C)
Method: (§1) Cells were transiently transfected by the short IL-8 promoter-firefly luciferase reporter and renilla luciferase reference and inflammation was induced by 10 ng/ml TNFα for 1 h. A. HeLa cells were pre-treated with diluent or different doses of sulindac 1 h before inflammation induction and 4 h after. IL-8 promoter activity in cells treated with sulindac+TNFα was expressed in percent of diluent+TNFα. B. After treatment, HeLa Ctr cells were lysed with TRIzol (Invitrogen). Total RNA was extracted, and 1 μg of total RNA was reverse transcribed with a reverse transcription kit. IL-8 mRNA expression was quantified by real-time quantitative PCR (qPCR). The comparative threshold cycle (CT) method was used for relative quantification of PCR products after IL-8 was normalised to TBP (ΔCt=CtIL-8−CtTBP). IL-8 mRNA data in treated samples were expressed in fold changes over controls: fold changetreated sample=2^−ΔΔCt (with ΔΔCt=ΔCtreated sample−ΔCtcontrol). C After treatment, IL-8 in supernatant was measured by ELISA. The IL-8 stimulation of cells treated with test drug +TNFα were expressed as fold compared to drug −TNFα. […]
IL-8 secretion into the supernatant of cells cultures was measured with the IMMULITE 1000 Automated Analyser (Diagnostic Products Corp) and the commercially available Immulite chemiluminescent enzyme immunometric assays (Immulite®) according to the manufacturer's instructions.

p65 = assay: Western blot of nuclear p65 after TNFα; conditions: HeLa control cells; 500 μM 1 h pre-treatment; TNFα 10 ng/ml 30 min
Method: HeLa control cells were pre-treated with diluent (0.5%) or sulindac (500 μM) for 1 h and stimulated or not with 10 ng/ml TNFα for 30 min. Nuclear and cytosolic fractions were obtained by differential centrifugation. A. Analysis by western blot of cytosolic IKb quantity. The Iκb quantity was expressed in percent of control. […] B. Analysis by western blot of nuclear p65 quantity. Nuclear p65 quantity was expressed in percent of diluents+TNFα.
Nuclear and cytosolic fraction was obtained by differential centrifugation. Briefly, cells were lyses in buffer C (10 mM Hepes, 60 mM KCl, 1 mM EDTA, 7.8% NP40, 100 mM DTT, pH 7.6). After centrifugation, nucleus pellet were lyses in buffer N (27 mM Tris, 566 mM NaCl, 2 mM MgCl2, 1.3 mM EDTA, pH 8). Aliquots of fraction (30 μg protein) were separated by SDS-PAGE and transferred on PVDF membrane. The western blots were probed with mouse monoclonal antibodies specific for IκB or p65 (Santa-Cruz) 2 h at room temperature.

[1] = system: PPAR transcriptional activity; assay: PPAR firefly luciferase reporter assay (3 PPRE motifs) in HeLa cells; conditions: sulindac 100 μM, 24 h
Method: HeLa control cells were transiently transfected by PPAR firefly luciferase reporter (3 PPRE motifs) and renilla luciferase reference. Cells were treated with diluent (0.5%), ibuprofen (500 μM) or sulindac (100 μM) for 24 h. The PPAR transcriptional activity in cells treated with ibuprofen and sulindac was expressed in percent of diluents. Results of three independent experiments, means±SEM. Unilateral paired t test: ** p<0.01.
To assay the transcriptional activity of AP-1, pAP1Luc, a luciferase reporter plasmid containing five sequential AP-1 binding sites upstream of a minimum promoter element, was used. Transcriptional activity of PPAR was evaluated with reporter constructs with three sequential PPRE consensus sequences, binding PPAR factors. Transient transfection were realized as described before. To normalize transfection efficiency, a renilla luciferase reporter construct (pRL-TK, Promega) was co-transfected with each of the firefly luciferase constructs. To induced AP-1 activity, cells were exposed to TNFα (10 ng/mL) for 1 hour. Cells were pre- and treated with sulindac, ibuprofen or vehicule control one hour before and four hours after this induction. For PPAR activity, cells were treated with pharmacological drugs for 24 hours.
Luciferase assay was realized as described before.

[2] = system: AP-1 transcriptional activity; assay: AP-1 firefly luciferase reporter assay, TNFα-stimulated HeLa cells; conditions: 500 μM, TNFα 10 ng/ml
Method: HeLa cells were transiently transfected by AP-1 firefly luciferase reporter and renilla luciferase reference. HeLa control cells were pre-treated with diluent (0.5%), ibuprofen (500 μM) or sulindac (500 μM) for 1 h and stimulated for 1 h with 10 ng/ml TNFα. After removal of TNFα, cells were incubated for 4 h with pharmacological treatment. The AP-1 transcriptional activity in cells treated with ibuprofen+TNFα and sulindac +TNFα was expressed in percent of diluent+TNFα. Results of three independent experiments, means±SEM. Unilateral paired t test: ** p<0.01. To assay the transcriptional activity of AP-1, pAP1Luc, a luciferase reporter plasmid containing five sequential AP-1 binding sites upstream of a minimum promoter element, was used. […] To normalize transfection efficiency, a renilla luciferase reporter construct (pRL-TK, Promega) was co-transfected with each of the firefly luciferase constructs. To induced AP-1 activity, cells were exposed to TNFα (10 ng/mL) for 1 hour. Cells were pre- and treated with sulindac, ibuprofen or vehicule control one hour before and four hours after this induction.

IL-8 promoter = IL-8 promoter luciferase reporter / IL-8 mRNA qPCR, TNFα-stimulated cells; conditions: TNFα 10 ng/ml; bronchial epithelial cells and heterologous HeLa models (FIGS. 2A, B)
Method: as §1, with “IL-8 mRNA data in treated samples were expressed in fold changes over controls: fold changetreated sample=2^−ΔΔCt (with ΔΔCt=ΔCtreated sample−ΔCtcontrol).” left out
Cells were lysed with the Passive Lysis Buffer (Promega), and luciferase activity in the cellular extracts was determined by the Dual Luciferase Assay System (Promega) using a luminometer (Tristar; Berthold). The results were normalized to those obtained with the Renilla luciferase reference plasmid used to control the transfection efficiency, and the values were expressed as luminescence intensity (Luciferase/Renilla). […]

For `CC1=C(CC(=O)O)c2cc(F)ccc2/C1=C\c1ccc([S+](C)[O-])cc1` (centres unmarked) [sulindac, (Z)-5-fluoro-2-methyl-1-[p-(methylsulfinyl)benzylidene]-indene-3-acetic acid], the IL-8 secretion (IL-8 secretion) was “decrease of IL-8 secretion”, the “nuclear translocation of NF-κB (nuclear p65 quantity)” value (p65) was “not significantly modified; also recorded: did not prevent the nuclear translocation of NF-κB” and the PPAR transcriptional activity [1] was “increase in the transcriptional activity of PPAR”. The “AP-1 transcriptional activity induced by TNF” value [2] was “causes a decrease in the induction” and the IL-8 transcription (IL-8 promoter) was “decreased IL-8 transcription”.
